Here are results for 24 compounds from ChEMBL document CHEMBL1201862, “PubChem BioAssay data set” (2004).

Experiment in all cases: NCI tumour cell line growth inhibition, 48 h
In test [1] the test system is DLD-1.
The test system of test [2] is DMS-114.
Test [3] deals with DMS-273.
The test system of test [4] is LXFL 529.
For test [5], the system named is M19-MEL.
Test [6] relates to SNB-78.
Test [7] deals with XF498.
Test [8] concerns KM-20L2.
Test [9] concerns RXF 631.

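Each compound was tested at five concentrations against cells in 96-well plates for 48 hours. Abbreviation: GI50, concentration required for 50% inhibition of growth.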 Activity calls are given as the source filed them. Cut-off read from the data, not from the text of the source: active = GI50 up to about 1.1 µM and inactive = higher. Starred links: 1 amine or outer side, 2 acyl side, 3 side chain; linkers in the order of their positions; H or OH if unused. Positions of bridges follow the written chain, without caps; N, C: chain ends. Non-standard residues stand in square brackets, D forms with d. Residues, ends and D or L forms follow the SMILES beside them. Chains are numbered I, II in the order given. Actinocin(1to9) = Cc1c2oc3c(C)ccc(C(=O)[*:2])c3nc-2c(C(=O)[*:1])c(N)c1=O; aThr = C[C@H](O)[C@H](N)C(=O)O; NMeV = CN[C@H](C(=O)O)C(C)C; Sar = CNCC(=O)O

On to `c1ccc(OCc2nnc3n2N=C(c2ccccc2)CS3)cc1`, for which the GI50 in test [1], in [2], in test [3], in [4], in test [5] and in [6] was > 100 µM (inactive) each time. In [7], the GI50 is > 100 µM (inactive).
As to `Clc1ccc(-c2c(C3=NCCCN3)nnn2-c2ccc(Cl)cc2)cc1`, the GI50 in test [1] was > 68.9 µM (inactive); in test [2] it was 21.7 µM (inactive); in [3] it was 60.5 µM (inactive); in test [8], 29.5 µM (inactive); in test [4] it was 29 µM (inactive); in test [6], 43.6 µM (inactive). The GI50 in test [7] was 22.6 µM (inactive).
Take `Nc1ncnc2c(C3OC(CO)C(O)C3O)scc12` (stereo unspecified): the GI50 was 0.00212 µM (active) in test [1]; 0.0292 µM (active) in test [2]; 0.00377 µM (active) in test [3]; 0.00516 µM (active) in test [8]; 0.129 µM (active) in test [4]; 0.369 µM (active) in test [5]. In addition, the GI50 in test [6] was 4.31 µM (inactive); in test [7] it was 0.0282 µM (active).
As to `O=C(Nc1cc(Cl)ccc1Cl)C(=O)C(c1cnc2ccccc2n1)[N+](=O)[O-]` (stereo unspecified), the GI50 in test [1], in test [2], in test [8], in test [4], in test [5] and in test [9] was > 100 µM (inactive) each time. For the same compound, the GI50 in test [6] and in [7] was > 100 µM (inactive) in each case.
Regarding `O=C1OC(c2ccccc2)=N/C1=C\c1c(O)cc(O)cc1O`, the GI50 is > 100 µM (inactive) in test [2]; 94.2 µM (inactive) in [3]; > 100 µM (inactive) in test [8]; 41 µM (inactive) in test [4]; 83.6 µM (inactive) in test [5]; > 100 µM (inactive) in test [6].
For `O=[N+]([O-])c1ccc2nc(/C(=N\Nc3ccccc3)C(O)c3ccc4c(c3)OCO4)c(O)nc2c1` (stereo unspecified), the GI50 was > 100 µM (inactive) in [1]; 37.4 µM (inactive) in test [2]; 37.7 µM (inactive) in test [3]; 67 µM (inactive) in [8]; 50.7 µM (inactive) in [4]; > 100 µM (inactive) in [5]. In addition, the GI50 in [9] and in [6] was > 100 µM (inactive) throughout.
Regarding `COc1ccc(-c2nc(N)n(C)c2SSc2c(-c3ccc(OC)cc3)nc(N)n2C)cc1`, the GI50 is 4.3 µM (inactive) in test [1]; 2.26 µM (inactive) in [2]; 3.88 µM (inactive) in [3]; 12.9 µM (inactive) in [8]; 1.67 µM (inactive) in [4]; 2.29 µM (inactive) in test [5]. Further, the GI50 in [7] was 2.13 µM (inactive).
Regarding `CC1=CC(=O)N2[C@H](OC[C@@H]2C(C)C)O1`, the GI50 in test [1], in [2], in test [8], in test [4], in test [5] and in test [9] was > 100 µM (inactive) each time. The GI50 in [7] was > 100 µM (inactive).
Consider `O=C1CCC(=O)C(C(=O)CCC(=O)Nc2ccc(Cl)cc2)C1` (stereo unspecified), for which the GI50 in test [1], in test [2], in test [3], in test [8], in test [4] and in test [9] was > 100 µM (inactive) in each case. For the same compound, the GI50 in test [6] and in test [7] was > 100 µM (inactive) in each case.
`Oc1cc(Cl)ncn1`: the GI50 in test [1], in [2], in test [3], in test [8], in test [4] and in [5] was > 100 µM (inactive) throughout. Also, the GI50 in test [9] and in [6] was > 100 µM (inactive) each time.
With `Cc1c(C(=O)CC(=O)C(=O)NC2C3CC4CC(C3)CC2C4)[n+]([O-])c2ccccc2[n+]1[O-]` (stereo unspecified), the GI50 is > 100 µM (inactive) in [2]; > 100 µM (inactive) in test [3]; > 100 µM (inactive) in [8]; > 100 µM (inactive) in test [4]; 90.2 µM (inactive) in test [5]; > 100 µM (inactive) in [9]. Moreover, the GI50 in test [6] is > 100 µM (inactive); in [7] it was 93.5 µM (inactive).
Take `O=C(O)CCC(NC(=O)c1ccc(Nc2nc3cc(C(F)(F)F)ccc3nc2-c2ccccc2)cc1)C(=O)O` (stereo unspecified): the GI50 in test [1] is > 76 µM (inactive); in test [2], > 100 µM (inactive); in [3] it was 24.6 µM (inactive); in [8], 24.3 µM (inactive); in [5], > 100 µM (inactive); in test [6], > 95.9 µM (inactive). For the same compound, in test [7], the GI50 is > 78.2 µM (inactive).
As for `CCOC(=O)c1cnc2sc3ccc4ccccc4c3n2c1=O`, the GI50 in [1] is > 100 µM (inactive); in test [2], 71.6 µM (inactive); in [3] it was 95.5 µM (inactive); in test [8], 72.1 µM (inactive); in test [4], 55.2 µM (inactive); in test [5], > 100 µM (inactive). Further, the GI50 was 64.6 µM (inactive) in test [9] and > 100 µM (inactive) in [6].
In the case of `CC(C)CCS(=O)(=O)OCCCCOS(=O)(=O)CCC(C)C`, the GI50 in test [1], in test [2], in test [3], in test [8], in test [4] and in test [5] was > 100 µM (inactive) each time. The GI50 in test [6] is > 100 µM (inactive).
In the case of `NNC(=O)/C(NC(=O)c1ccccc1)=C(\N)c1ccc(Cl)cc1`, the GI50 in test [1], in [2], in [3], in test [8], in test [4] and in test [5] was > 100 µM (inactive) throughout. Moreover, the GI50 in test [6] is > 100 µM (inactive).
`CC1CN1c1c(C(=O)/C=C/c2ccc(F)cc2)c(-c2ccccc2)nn(C)c1=O` (stereo unspecified): the GI50 in [1] is 12.8 µM (inactive); in test [2] it was 15.7 µM (inactive); in test [3] it was > 10 µM (inactive); in test [8], 17.7 µM (inactive); in test [4] it was 16.7 µM (inactive); in test [5] it was 14.6 µM (inactive). For the same compound, the GI50 was 23.4 µM (inactive) in test [6] and 15.3 µM (inactive) in test [7].
As for `CC1=C2[C@H](c3ccccc3)C3C=CC2(c2ccccc23)N(C(=O)C(c2ccccc2)c2ccccc2)C1=O` (stereo partly specified), the GI50 in test [1], in test [2], in [3], in test [8], in test [4] and in test [5] was > 100 µM (inactive) each time. In addition, the GI50 in test [7] was > 100 µM (inactive).
In the case of `CCC(=C(C#N)C#N)c1cc(OC)c(OC)c(OC)c1`, the GI50 in test [1], in [2], in test [3], in [8], in [4] and in test [5] was > 100 µM (inactive) each time. The GI50 in test [7] is > 100 µM (inactive).
For `c1ccc(C2=NOC3(c4ccccc4)SC4CCCCC4CN23)cc1` (stereo unspecified), the GI50 was 40.5 µM (inactive) in test [1]; 15.6 µM (inactive) in [2]; 32.6 µM (inactive) in test [3]; 39.5 µM (inactive) in test [8]; 13.2 µM (inactive) in test [4]; 30.5 µM (inactive) in test [5]. Also, the GI50 is 34 µM (inactive) in test [6] and 52.4 µM (inactive) in [7].
On to `COc1cc2c(cc1OC)C(C(c1ccccc1)c1ccccc1)N(C)CC2` (stereo unspecified), for which the GI50 in test [1] is > 78.9 µM (inactive); in [2], 41.8 µM (inactive); in [3], 77.3 µM (inactive); in [8] it was 32.6 µM (inactive); in [5], > 91.6 µM (inactive); in test [6] it was > 100 µM (inactive). For the same compound, the GI50 in test [7] was 53 µM (inactive).
On to `COc1ccc2c(c1)[n+]([O-])c(-c1ccc(C)cc1)c(N)[n+]2[O-]`, for which the GI50 in test [1] was > 100 µM (inactive); in test [2] it was 24.9 µM (inactive); in test [3], 37.7 µM (inactive); in [8], 36.1 µM (inactive); in test [4] it was 59.6 µM (inactive); in [5] it was 51.1 µM (inactive). In test [6], the GI50 is 70.5 µM (inactive).
As for `CC(C)(c1ccc(OC#N)cc1)c1ccc(OC#N)cc1`, the GI50 is > 56.8 µM (inactive) in test [1]; > 41.5 µM (inactive) in test [2]; > 74.6 µM (inactive) in test [8]; > 100 µM (inactive) in test [4]; > 82.6 µM (inactive) in [5]; > 100 µM (inactive) in [9]. Besides, in test [6], the GI50 is > 100 µM (inactive).
Take `O=C1C=C2SC3C[C@@]24CC1[N+]1=c2c4c(c(O)c4c2=C(C=N4)CC1)N3`: the GI50 in test [1] was 2.07 µM (inactive); in [2], 1.39 µM (inactive); in test [3] it was 2.12 µM (inactive); in test [8] it was 1.92 µM (inactive); in test [5], 1.9 µM (inactive); in test [6] it was 2.61 µM (inactive). Moreover, the GI50 in test [7] was 1.91 µM (inactive).
In the case of `Cc1c2oc3c(C)ccc(C(=O)N[C@@H]4C(=O)N[C@H](C(C)C)C(=O)N5CCC[C@H]5C(=O)N(C)CC(=O)N(C)[C@@H](C(C)C)C(=O)O[C@H]4C)c3nc-2c(C(=O)N[C@@H]2C(=O)N[C@H](C(C)C)C(=O)N3CCC[C@H]3C(=O)N(C)CC(=O)N(C)[C@@H](C(C)C)C(=O)O[C@H]2C)c(N)c1=O` (I: [aThr][dV]P[Sar][NMeV] / II: [aThr][dV]P[Sar][NMeV]; ester I:1-I:C, II:1-II:C; linker I:N-II:N via Actinocin(1to9)), the GI50 in test [1] was 0.00384 µM (active); in test [2], 0.00295 µM (active); in test [3], 0.00031 µM (active); in [8], 0.00292 µM (active); in [5], 0.00155 µM (active); in test [6], 0.0027 µM (active). Moreover, the GI50 in test [7] was 0.000897 µM (active).
